# From paper PMC8073907, “Peptide targeting of lysophosphatidylinositol-sensing GPR55 for osteoclastogenesis tuning” (Cell Communication and Signaling : CCS, 2021)
# System: RAW264.7 cells
# Test: Filopodium formation / actin morphology in siRNA-interfered RAW264.7 cells (confocal microscopy)
# Assay type: cell-based, murine
# Conditions: 10 µM soybean LPI
# Description: For transient interference of Gpr55, RAW264.7 cells were plated at 6 × 10^5 cells/well in six-well plates in growth medium without antibiotics. Twenty-four hours later, the cells were transfected with 250 pmol/well non-targeting small-interfering (si)RNAs (si-NT; siGENOME siRNA Pool #2; D-001206-14; Dharmacon, Chicago, IL, USA) or Gpr55-specific siRNAs (si-GPR55; siGENOME mouse GPR55 SMART pool; M-043590-01; Dharmacon) using Lipofectamine LTX and Plus Reagent, according to the manufacturer instructions. Twenty-four hours later, the cells were plated for the different assays or for RNA extraction. The efficiency of interference was monitored by real-time PCR after 72 h of interference, using the primers listed in the Additional file 1: Table S1. β2-microglobulin was followed as a housekeeping gene.
# Twenty-four hours after plating the RAW264.7 cells at a density of 1.2 × 10^6 cells/well in six-well plates, or 2.5 × 10^5 cells/well in 24-well plates on coverslips, the cells were serum deprived for 2 h and then stimulated while adhered, with LPI in the assay buffer (0.1% faf-BSA, 20 mM HEPES in HBSS^++). […] Finally, the fixed cells were stained with 33 nM Alexa546-labelled phalloidin for 1 h at room temperature, washed three times (10 min each) with cytoskeleton buffer, suspended in PBS with 3% BSA, and analysed by FACS (FACSCalibur or FACSAria III; Becton Dickinson, Franklin Lakes, NJ). […]
substance,measurement,setting,value
lysophosphatidylinositol [LPI],"actin cytoskeleton reorganisation, si-GPR55",si-GPR55 cells,no significant signs of actin cytoskeleton reorganisation
same,"numbers of filopodia, si-NT",si-NT cells,time-dependent increase in the numbers of filopodia
